Assay results as given in patent publication US20070093513A1, “Agent for repairing corneal perception” (SENJU PHARMACEUTICAL CO., LTD., priority 2003, published 2007).
Where a name gives a salt, the structure may show the parent alone.

Tests used:
[1] = tested on: cultured rabbit trigeminal nerve cells; assay: Neurite outgrowth promoting effect in cultured rabbit trigeminal nerve cells (Experimental Example 2); format: cell-based, Japanese White Rabbits; conditions: cultured for 48 hrs, non-addition group about 31%
Source text: Japanese White Rabbits (2-3 days old) purchased from KITAYAMA LABES Co., Ltd. were used.
As a ROCK inhibitor, 2-chloro-6,7-dimethoxy-N-[5-1H-indazolyl]quinazoline-4-amine, N-(1-benzyl-4-piperidinyl)-1H-indazole-5-amine dihydrochloride, 4-[2-(2,3,4,5,6-pentafluorophenyl)acryloyl]cinnamic acid and fasudil hydrochloride were used.
2-Chloro-6,7-dimethoxy-N-[5-1H-indazolyl]quinazoline-4-amine (hereinafter to be indicated as compound 1) used was synthesized according to Reference Example 1. N-(1-benzyl-4-piperidinyl)-1H-indazole-5-amine dihydrochloride.½ hydrate (hereinafter to be indicated as compound 2) used was synthesized according to Reference Example 2. 4-[2-(2,3,4,5,6-Pentafluorophenyl)acryloyl]cinnamic acid (hereinafter to be indicated as compound 3) used was synthesized according to Reference Example 3. Fasudil hydrochloride (hereinafter to be indicated as compound 4) used was a commercially available fasudil hydrochloride hydrate injection, “Eril Injection 30 mg” (manufactured by Asahi Kasei Corporation).
Rabbit trigeminal nerve cells were isolated in the same manner as in Experimental Example 1. For cell culture, a culture medium obtained by adding B27 Supplement (manufactured by GIBCO; final concentration 2% v/v) and L-glutamine (manufactured by GIBCO; concentration 1 mM) to neurobasal culture medium (manufactured by GIBCO) was used. A circular cover glass (diameter 12 mm; manufactured by SUMITOMO BAKELITE) after polylysine/laminin coating was placed in each well of a 24 well plate, and cells were plated on the cover glass at about 3×10^3 cells/well. After cell adhesion to the cover glass (about 2 hrs), the above-mentioned culture medium was changed to a culture medium containing each test substance (compound 1, final concentration 10 μM; compound 2, final concentration 10 μM; compound 3, final concentration 1 μM; compound 4, final concentration 10 μM) and the cells were cultured for 48 hrs. […]
A specimen fixed using an anti-neurofilament 200 antibody (manufactured by Sigma) that recognize neurofilaments, which are intermediate filaments specific to nerve cell, and a fluorescent secondary antibody (manufactured by Molecular Probes) reactive therewith was fluorescence stained and the stained cells were detected using a fluorescence microscope. […] The whole cell number (t) of each image was counted. Along therewith, the length of cell neurite and the diameter of cell body were measured using an image analysis software (MacSCOPE, manufactured by MITANI CO.), and the cells having a neurite with a length of not less than twice the diameter of the cell body were counted as neuritogenetic cell (a). Then the rate (%) of the total neuritogenetic cell number (a1+a2+ . . . +an=Σa) to the total cell number (Σt) was calculated. […]

COc1cc2nc(Cl)nc(Nc3ccc4[nH]ncc4c3)c2cc1OC [compound 1, 2-Chloro-6,7-dimethoxy-N-[5-1H-indazolyl]quinazoline-4-amine]
rate of the neuritogenetic cells relative to the total cells ([1]; final concentration 10 μM): about 41% | melting point: 278.7 to 283.8 °C

Cl.Cl.Cl.Cl.O.c1ccc(CN2CCC(Nc3ccc4[nH]ncc4c3)CC2)cc1.c1ccc(CN2CCC(Nc3ccc4[nH]ncc4c3)CC2)cc1 [compound 2, N-(1-benzyl-4-piperidinyl)-1H-indazole-5-amine dihydrochloride.½ hydrate]
rate of the neuritogenetic cells relative to the total cells ([1]; final concentration 10 μM): about 57%

C=C(C(=O)c1ccc(C=CC(=O)O)cc1)c1c(F)c(F)c(F)c(F)c1F [compound 3, 4-[2-(2,3,4,5,6-Pentafluorophenyl)acryloyl]cinnamic acid]
rate of the neuritogenetic cells relative to the total cells ([1]; final concentration 1 μM): about 51%

O=S(=O)(c1cccc2cnccc12)N1CCCNCC1 [compound 4, Fasudil hydrochloride]
rate of the neuritogenetic cells relative to the total cells ([1]; final concentration 10 μM): about 70%
